# Source: patent publication US10617683B2, “Inhibitors of CRL4 ubiquitin ligase and uses thereof” (Cornell University, priority 2012, dated 2020)
# Where a SMILES comes first, the peptide text is derived from it. The star is where a group is joined. Cbz = O=C(OCc1ccccc1)*
# Tested on: DDB2 degradation by CUL4A in MEF cells expressing FLAG-tagged DDB2
# Assay: cell-based assay for DDB2 degradation by CUL4A following UV
# Set-up: species or system Mouse
# Settings: positive control, FIG. 2 lane 3
# Description: FIG. 2 is an image which depicts experimental data illustrating the results of a cell-based DDB2 degradation assay. The tested compounds, which are described in detail in FIGS. 7-11, included the following small molecule compounds: PZ-104 (lane 1); PZ-108 (lane 2); PZ-106 (lane 3); PZ-101 (lane 4); PZ-103 (lane 5); PZ-501 (lane 6); PZ-202 (lane 7); PZ-203 (lane 8); PZ-201 (lane 9); PZ-301 (lane 10); PZ-305 (lane 11); PZ-303 (lane 12); PZ-601 (lane 13); PZ-701 (lane 14); PZ-701 (lane 15); PZ-901 (lane 16); PZ-1001 (lane 17); PZ-1101 (lane 18); PZ-1201 (lane 19); PZ-401 (lane IV1); PZ-402 (lane IV2); and PZ-403 (IV3). MG132, a proteasome inhibitor that blocks UV-induced DDB2 degradation, was a positive control. Tubulin levels were determined by Western blotting as a loading control. […]
# A cell-based assay for DDB2 degradation by CUL4A following exposure to UV light was used as a second validation assay to evaluate the hit compounds. […] Three hours post UV exposure, cells were lysed in 1×SDS buffer and protein concentrations were measured by the BCA kit. F-DDB2 levels were detected by SDS PAGE and Western blotting, and tubulin levels were used as loading control. […]
smiles,measurement,value
CC(C)C[C@@H](C=O)NC(=O)[C@H](CC(C)C)NC(=O)[C@H](CC(C)C)NC(=O)OCc1ccccc1 [MG132] (Cbz-Leu-Leu-Leu-aldehyde),UV-induced DDB2 degradation,blocks
